Publication PMC11440591 (Journal of Medicinal Chemistry, 2024)
Where two headings read alike, the source gives them in different places.

Legend:
EBOV = settings: cited from earlier work
VeroE6 cells = settings: cited from earlier work
EBOV like particles = settings: cited from earlier work
in vivo [1] = settings: male, BALB/c, mouse
hERG potassium channel [2] = biological target: T1, hERG potassium channel (Homo sapiens, UniProt Q12809); test: in vitro
[3] = system: VSV-G-pseudotype virus (pVSV-G); test: microbe, parasite or virus in culture; assay type: cell-based; settings: Vesicular stomatitis virus, read-out: %inh@10µM (pVSV-G)
in vitro [4] = settings: chlorocebus sabaeus
[5] = system: wild-type Zaire EBOV Mayinga 1976 strain (EBOV May); test: microbe, parasite or virus in culture; settings: Zaire ebolavirus, Vero C1008, 72 h, read-out: EC50 (EBOV May)
[6] = male, BALB/c, mouse, in vivo
[7] = biological target: EBOV-GPcl/NPC1-domain C interaction (Zaire ebolavirus, UniProt Q05320); assay type: binding, EBOV; Homo sapiens
[8] = system: EBOV-GP-pseudotyped virus (pEBOV); test: microbe, parasite or virus in culture; settings: Vesicular stomatitis virus, Vero C1008, 24 h, read-out: EC50 (pEBOV)
Nav1.5 = Nav1.5 (Homo sapiens, UniProt Q14524); test: in vitro
[9] = system: pseudotypes with the SUDV envelope (pSUDV); test: microbe, parasite or virus in culture; assay type: cell-based; settings: Sudan ebolavirus, read-out: EC50 (pSUDV)
in vitro [10] = settings: human, microsomes, pH 7.4
in vitro [11] = settings: CD-1, mouse, microsomes, pH 7.4
hERG potassium channel [12] = biological target: T1, hERG potassium channel; test: cell-based
in vivo [13] = settings: both, C57BL/6, mouse, po
[14] = system: wild-type Zaire EBOV Mayinga 1976 strain (EBOV May)
[15] = system: EBOV-GP-pseudotyped virus (pEBOV)

T1 sequence (Q12809 whole entry): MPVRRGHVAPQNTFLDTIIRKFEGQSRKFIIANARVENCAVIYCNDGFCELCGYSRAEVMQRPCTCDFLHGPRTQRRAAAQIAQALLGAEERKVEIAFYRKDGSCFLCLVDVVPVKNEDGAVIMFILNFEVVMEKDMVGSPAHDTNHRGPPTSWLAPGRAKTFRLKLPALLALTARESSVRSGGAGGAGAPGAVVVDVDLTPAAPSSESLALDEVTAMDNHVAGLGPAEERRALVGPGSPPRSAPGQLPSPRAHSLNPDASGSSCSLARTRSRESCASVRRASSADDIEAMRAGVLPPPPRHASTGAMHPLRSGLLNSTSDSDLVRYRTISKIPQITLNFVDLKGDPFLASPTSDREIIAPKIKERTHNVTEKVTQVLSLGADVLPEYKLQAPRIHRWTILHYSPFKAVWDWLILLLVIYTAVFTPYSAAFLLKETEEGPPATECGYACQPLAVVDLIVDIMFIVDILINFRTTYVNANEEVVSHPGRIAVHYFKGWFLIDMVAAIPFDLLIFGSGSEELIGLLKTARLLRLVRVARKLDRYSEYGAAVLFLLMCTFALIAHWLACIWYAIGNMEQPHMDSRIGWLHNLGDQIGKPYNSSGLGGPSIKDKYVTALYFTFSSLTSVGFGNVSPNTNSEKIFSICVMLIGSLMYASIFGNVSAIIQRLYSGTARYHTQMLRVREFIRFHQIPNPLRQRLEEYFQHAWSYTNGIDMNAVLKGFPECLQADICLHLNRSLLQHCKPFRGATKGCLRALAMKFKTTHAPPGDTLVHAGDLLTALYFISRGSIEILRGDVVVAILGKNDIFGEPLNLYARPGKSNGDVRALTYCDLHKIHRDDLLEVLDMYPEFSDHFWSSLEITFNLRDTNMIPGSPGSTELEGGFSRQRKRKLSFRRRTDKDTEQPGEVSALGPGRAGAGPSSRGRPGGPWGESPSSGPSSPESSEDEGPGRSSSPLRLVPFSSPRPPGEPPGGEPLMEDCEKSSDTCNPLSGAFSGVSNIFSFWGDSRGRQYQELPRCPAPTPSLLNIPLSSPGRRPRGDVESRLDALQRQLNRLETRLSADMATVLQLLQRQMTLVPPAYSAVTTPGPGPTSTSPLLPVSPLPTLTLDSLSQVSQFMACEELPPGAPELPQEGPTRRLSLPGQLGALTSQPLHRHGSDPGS
Nav1.5, sequence (Q14524 whole entry): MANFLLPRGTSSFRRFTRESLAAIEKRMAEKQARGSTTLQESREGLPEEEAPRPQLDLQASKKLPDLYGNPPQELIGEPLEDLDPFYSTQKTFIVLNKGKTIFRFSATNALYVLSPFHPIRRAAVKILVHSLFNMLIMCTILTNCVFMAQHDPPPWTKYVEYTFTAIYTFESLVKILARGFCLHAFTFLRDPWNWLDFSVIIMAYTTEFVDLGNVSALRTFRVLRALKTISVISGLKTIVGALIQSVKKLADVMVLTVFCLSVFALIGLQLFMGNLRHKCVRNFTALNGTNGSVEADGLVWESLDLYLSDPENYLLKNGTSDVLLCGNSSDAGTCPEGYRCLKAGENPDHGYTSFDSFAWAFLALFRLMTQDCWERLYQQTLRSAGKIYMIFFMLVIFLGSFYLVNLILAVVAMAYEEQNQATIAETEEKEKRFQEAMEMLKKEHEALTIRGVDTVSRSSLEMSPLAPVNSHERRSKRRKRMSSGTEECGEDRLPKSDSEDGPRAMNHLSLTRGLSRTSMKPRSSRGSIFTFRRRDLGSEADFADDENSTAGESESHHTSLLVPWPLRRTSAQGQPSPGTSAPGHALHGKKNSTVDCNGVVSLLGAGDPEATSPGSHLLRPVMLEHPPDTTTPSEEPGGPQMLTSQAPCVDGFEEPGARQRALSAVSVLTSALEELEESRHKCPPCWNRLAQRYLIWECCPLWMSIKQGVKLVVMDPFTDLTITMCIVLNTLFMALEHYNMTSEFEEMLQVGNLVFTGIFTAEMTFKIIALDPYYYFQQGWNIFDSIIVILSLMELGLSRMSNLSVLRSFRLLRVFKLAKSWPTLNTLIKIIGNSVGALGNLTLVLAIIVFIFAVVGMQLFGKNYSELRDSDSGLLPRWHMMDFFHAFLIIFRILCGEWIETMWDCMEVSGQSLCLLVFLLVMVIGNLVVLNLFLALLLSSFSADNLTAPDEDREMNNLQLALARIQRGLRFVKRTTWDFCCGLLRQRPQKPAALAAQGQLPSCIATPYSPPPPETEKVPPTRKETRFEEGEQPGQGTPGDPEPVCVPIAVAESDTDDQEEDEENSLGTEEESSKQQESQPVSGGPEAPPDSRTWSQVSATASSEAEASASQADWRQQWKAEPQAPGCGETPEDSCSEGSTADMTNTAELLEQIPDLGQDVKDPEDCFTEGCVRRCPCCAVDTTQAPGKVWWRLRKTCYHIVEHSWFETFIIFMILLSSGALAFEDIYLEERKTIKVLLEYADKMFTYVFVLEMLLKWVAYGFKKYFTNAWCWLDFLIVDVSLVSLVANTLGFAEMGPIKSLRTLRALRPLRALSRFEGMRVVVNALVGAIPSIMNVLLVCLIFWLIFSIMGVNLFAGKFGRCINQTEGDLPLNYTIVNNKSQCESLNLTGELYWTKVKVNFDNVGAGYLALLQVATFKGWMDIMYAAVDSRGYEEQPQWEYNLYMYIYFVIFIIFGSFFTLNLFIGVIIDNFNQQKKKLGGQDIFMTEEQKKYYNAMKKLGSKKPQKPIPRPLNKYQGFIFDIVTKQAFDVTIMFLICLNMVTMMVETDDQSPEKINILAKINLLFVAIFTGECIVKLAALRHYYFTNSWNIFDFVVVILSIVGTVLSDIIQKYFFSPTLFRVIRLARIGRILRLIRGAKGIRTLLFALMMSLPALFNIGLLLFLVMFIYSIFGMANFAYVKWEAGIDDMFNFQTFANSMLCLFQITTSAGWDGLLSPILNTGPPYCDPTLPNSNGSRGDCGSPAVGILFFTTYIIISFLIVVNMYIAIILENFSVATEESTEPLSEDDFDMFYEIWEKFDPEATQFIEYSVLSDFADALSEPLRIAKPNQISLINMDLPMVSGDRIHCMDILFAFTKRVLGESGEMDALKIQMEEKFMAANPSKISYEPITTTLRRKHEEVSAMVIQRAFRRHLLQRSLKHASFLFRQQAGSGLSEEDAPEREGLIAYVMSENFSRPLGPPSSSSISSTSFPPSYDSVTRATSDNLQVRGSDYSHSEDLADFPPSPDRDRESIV
EBOV-GPcl/NPC1-domain C interaction, sequence (Q05320 33-190 limits assumed): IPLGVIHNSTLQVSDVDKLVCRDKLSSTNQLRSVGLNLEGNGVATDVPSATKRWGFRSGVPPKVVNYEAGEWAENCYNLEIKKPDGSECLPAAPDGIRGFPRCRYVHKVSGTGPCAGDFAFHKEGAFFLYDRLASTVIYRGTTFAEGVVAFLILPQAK
EBOV-GPcl/NPC1-domain C interaction, sequence (Q05320 502-676 limits assumed): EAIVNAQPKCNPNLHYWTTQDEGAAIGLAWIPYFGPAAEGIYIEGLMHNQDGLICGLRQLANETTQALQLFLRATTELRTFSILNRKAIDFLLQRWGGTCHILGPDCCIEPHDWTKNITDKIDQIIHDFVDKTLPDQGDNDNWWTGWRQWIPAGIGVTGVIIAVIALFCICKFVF

## COC(=O)c1ccc(COc2ccccc2CN2CCN(C(=O)CNC(=O)CC34CC5CC(CC(C5)C3)C4)CC2)cc1 [3.47]
EBOV
  EC50: 160 nM

## NC(=O)c1nc(F)cnc1O [Favipiravir, favipiravir]
VeroE6 cells
  CC50: > 1000 µM
EBOV
  IC50: 67 µM

## CN(C)CCCN1c2ccccc2CCc2ccccc21 [Imipramine, imipramine]
EBOV like particles
  IC50: 13.2 µM

## CN(C)CCOc1ccc(/C(=C(/CCCl)c2ccccc2)c2ccccc2)cc1 [Toremifene, toremifene]
VeroE6 cells
  CC50: 16 µM

## O=C(Nc1ccccc1)c1ccc(-c2ccccc2OC2CCNCC2)s1 [compound 1, N-Phenyl-5-(2-(piperidin-4-yloxy)phenyl)thiophene-2-carboxamide]
In vivo [1]; ip, 10 mg/kg
  half-life at 24 h: 118 min
  Cmax at 24 h: 122 ng/mL
In vivo [1]; po, 50 mg/kg
  half-life at 24 h: 336 min
hERG potassium channel [2]
  IC50: 10.6 µM
[3]
  inhibition at 10 µM: 0.66%
In vitro [4]
  CC50 at 24 h: 34 µM
[5]
  EC50: 1.5 µM
[6]; ip, 10 mg/kg
  brain concentration: 0.33 µM
  estimated plasma concentration: 0.32 µM
[6]; po, 50 mg/kg
  brain concentration: 0.81 µM
  estimated plasma concentration: 0.29 µM
[7]
  inhibitory effect on EBOV-GPcl/NPC1-domain C interaction (in words): comparable effect than the control imipramine
[8]
  EC50: 5.91 µM
Nav1.5
  IC50: 20.4 µM
[9]
  EC50: 2640 nM

## O=C(Nc1ccccc1)c1ccc(-c2cccc(OC3CCNCC3)c2)s1 [compound 53, N-Phenyl-5-(3-(piperidin-4-yloxy)phenyl)thiophene-2-carboxamide]
[3]
  inhibition at 10 µM: 7%
In vitro [4]
  CC50 at 24 h: 33.9 µM
[5]
  EC50: 0.3 µM
[8]
  EC50: 7.19 µM
[9]
  EC50: 3050 nM

## O=C(Nc1ccccc1)c1ccc(-c2ccc(OC3CCNCC3)cc2)s1 [compound 57, N-Phenyl-5-(4-(piperidin-4-yloxy)phenyl)thiophene-2-carboxamide]
In vivo [1]; ip, 10 mg/kg
  half-life at 24 h: 311 min
  Cmax: 1680 ng/mL
  Cmax at 24 h: 1040 ng/mL
  Tmax: 4 h
  Tmax at 24 h: 0.5 h
In vivo [1]; po, 50 mg/kg
  half-life at 24 h: 526 min
  Cmax: 773 ng/mL
  Cmax at 24 h: 5600 ng/mL
  Tmax: 4 h
  Tmax at 24 h: 2 h
hERG potassium channel [2]
  IC50: 48.9 µM
[3]
  inhibition at 10 µM: 24%
In vitro [4]
  CC50 at 24 h: 11 µM
In vitro [10]
  half-life at 1 h, 10 µM: 130 ± 9 min
[5]
  EC50: 0.19 µM
[6]; ip, 10 mg/kg
  brain concentration: 4.43 µM
  estimated plasma concentration: 2.74 µM
[6]; po, 50 mg/kg
  brain concentration: 14.80 µM
  estimated plasma concentration: 2.04 µM
[7]
  inhibitory effect on EBOV-GPcl/NPC1-domain C interaction (in words): comparable effect than the control imipramine
In vitro [11]
  half-life at 1 h, 10 µM: 29 ± 5 min
hERG potassium channel [12]
  IC50: ~50 µM
[8]
  EC50: 8.16 µM
Nav1.5
  IC50: > 50 µM
In vivo [13]
  MTD: 100 mg/kg
[9]
  EC50: 1680 nM

## O=C(NCCC1CCN(Cc2ccccc2)CC1)c1cnc(-c2ccc(OC3CCNCC3)cc2)s1 [compound 79, N-(2-(1-Benzylpiperidin-4-yl)ethyl)-2-(4-(piperidin-4-yloxy)phenyl)thiazole-5-carboxamide]
[3]
  inhibition at 10 µM: 39%
In vitro [4]
  CC50: > 100 µM
[5]
  EC50: 7.83 µM
[8]
  EC50: 8.3 µM
[14]
  SI (CC50/EC50): 12.8
[15]
  SI (CC50/EC50): 12

## O=C(NCCc1ccccc1)c1cnc(-c2ccccc2OC2CCNCC2)s1 [compound 97, N-Phenethyl-2-(2-(piperidin-4-yloxy)phenyl)thiazole-5-carboxamide]
[3]
  inhibition at 10 µM: 18%
In vitro [4]
  CC50 at 24 h: 91 µM
[5]
  EC50: 15.7 µM
[8]
  EC50: 6.27 µM
[14]
  SI (CC50/EC50): 5.8
[15]
  SI (CC50/EC50): 14.5

## O=C(Nc1ccc(Cl)cc1)c1ccc(-c2ccccc2OC2CCNCC2)o1 [compound 99, N-(4-Chlorophenyl)-5-(2-(piperidin-4-yloxy)phenyl)furan-2-carboxamide]
[3]
  inhibition at 10 µM: 10%
In vitro [4]
  CC50 at 24 h: 20 µM
[5]
  EC50: 2.53 µM
[8]
  EC50: 6.35 µM
[14]
  SI (CC50/EC50): 7.9
[15]
  SI (CC50/EC50): 3.1

## O=C(NCCC1CCN(Cc2ccccc2)CC1)c1ccc(-c2ccccc2OC2CCNCC2)o1 [compound 101, N-(2-(1-Benzylpiperidin-4-yl)ethyl)-5-(2-(piperidin-4-yloxy)phenyl)furan-2-carboxamide]
[3]
  inhibition at 10 µM: 39%
In vitro [4]
  CC50 at 24 h: 90 µM
[5]
  EC50: 9.5 µM
[8]
  EC50: 4.81 µM
[14]
  SI (CC50/EC50): 9.5
[15]
  SI (CC50/EC50): 18.7

## O=C(NCCc1ccccc1)c1ccc(-c2ccccc2OC2CCNCC2)o1 [compound 102, N-Phenethyl-5-(2-(piperidin-4-yloxy)phenyl)furan-2-carboxamide]
[3]
  inhibition at 10 µM: -23%
In vitro [4]
  CC50 at 24 h: 27.6 µM
[5]
  EC50: 6.19 µM
[8]
  EC50: 2.16 µM
[14]
  SI (CC50/EC50): 4.5
[15]
  SI (CC50/EC50): 12.77

## O=C(Nc1ccccc1)c1ccc(-c2cccc(OC3CCNCC3)c2)o1 [compound 103, N-Phenyl-5-(3-(piperidin-4-yloxy)phenyl)furan-2-carboxamide]
[3]
  inhibition at 10 µM: -18%
In vitro [4]
  CC50 at 24 h: 14.1 µM
[5]
  EC50: 9.26 µM
[8]
  EC50: 8.27 µM
[14]
  SI (CC50/EC50): 1.5
[15]
  SI (CC50/EC50): 1.7
